# Assay results reported in US8163740B2, “6-substituted benzoxazines” (Hoffmann-La Roche Inc., priority 2008, dated 2012).
# Where two headings read alike, the source gives them in different places.
# Tests used:
# [1] = molecular target: recombinant human 5-HT5A receptor (Homo sapiens, UniProt P47898); assay: [3H]LSD radioligand binding assay
# Method in brief: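 Membranes from HEK-EBNA cells transiently expressing the receptor, with ~1 nM [3H]LSD in 50 mM Tris, 1 mM EGTA, 10 mM MgCl2, 10 μM pargyline, pH 7.4, SPA bead format. Incubated 120 min RT; nonspecific binding defined with 2 μM methiothepin. 10 concentrations in duplicate; IC50 converted to Ki via Cheng-Prusoff.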
# [2] = [3H]LSD (approximately 1 nM), membranes from HEK-EBNA cells transiently expressing 5-HT5A, Ki by Cheng-Prussoff equation, read-out: Ki
# Chain of recombinant human 5-HT5A receptor (P47898 whole entry): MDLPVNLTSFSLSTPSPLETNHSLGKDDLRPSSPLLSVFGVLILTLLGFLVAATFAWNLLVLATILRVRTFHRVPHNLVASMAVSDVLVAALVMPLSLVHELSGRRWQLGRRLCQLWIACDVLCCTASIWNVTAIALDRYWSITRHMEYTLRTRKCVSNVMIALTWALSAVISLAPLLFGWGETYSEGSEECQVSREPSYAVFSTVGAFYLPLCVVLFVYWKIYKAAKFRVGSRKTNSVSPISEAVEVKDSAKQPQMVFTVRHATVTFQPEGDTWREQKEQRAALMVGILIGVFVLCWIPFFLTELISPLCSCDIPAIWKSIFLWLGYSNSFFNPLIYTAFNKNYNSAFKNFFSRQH
SMILES,"Ki [1, 2] [nM]",melting point [°C],Ki [1] [nM]
"COc1cccc2c1C(NC1=Nc3ccc(Br)cc3CO1)CO2 (racemic) [Example 54, rac-(6-Bromo-4H-benzo[d][1,3]oxazin-2-yl)-(4-methoxy-2,3-dihydro-benzofuran-3-yl)-amine]",125,132.5,
"Fc1ccc2c(c1)CCC2NC1=Nc2ccc(Nc3nnc(C(F)(F)F)o3)cc2CO1 (racemic) [Example 148, rac-N^2-(5-Fluoro-indan-1-yl)-N^6-(5-trifluoromethyl-[1,3,4]oxadiazol-2-yl)-4H-benzo[d][1,3]oxazine-2,6-diamine]",14.1,142,
"Brc1ccc2c(c1)COC(N[C@@H]1CCc3ccccc31)=N2 [Example 32, (6-Bromo-4H-benzo[d][1,3]oxazin-2-yl)-(R)-indan-1-yl-amine]",25.2,123,
"CN1CCN(CC(=O)Nc2ccc3c(c2)COC(NCCOc2ccccc2)=N3)CC1 [Example 122, 2-(4-Methyl-piperazin-1-yl)-N-[2-(2-phenoxy-ethylamino)-4H-benzo[d][1,3]oxazin-6-yl]-acetamide]",5.11,,
"O=C(CN1CCOCC1)Nc1ccc2c(c1)COC(NCCOc1ccccc1)=N2 [Example 123, 2-Morpholin-4-yl-N-[2-(2-phenoxy-ethylamino)-4H-benzo[d][1,3]oxazin-6-yl]-acetamide]",41.4,,
"CC(C)N1CCC(NC(=O)Nc2ccc3c(c2)COC(NC2CCCCCC2)=N3)CC1 [Example 124, 1-(2-Cycloheptylamino-4H-benzo[d][1,3]oxazin-6-yl)-3-(1-isopropyl-piperidin-4-yl)-urea]",3.32,,
"O=C(NCc1ccc2c(c1)COC(N[C@@H]1CCc3ccccc31)=N2)c1ccc(F)cc1 [Example 132, 4-Fluoro-N-[2-((R)-indan-1-ylamino)-4H-benzo[d][1,3]oxazin-6-ylmethyl]-benzamide]",48,,
"C=Cc1ccc2c(c1)COC(N[C@@H]1CCc3ccccc31)=N2 [Example 134, (R)-Indan-1-yl-(6-vinyl-4H-benzo[d][1,3]oxazin-2-yl)-amine]",13.5,,
"CC(C)N1CCC(NC(=O)Nc2ccc3c(c2)COC(Nc2cccc(C4CC4)c2)=N3)CC1 [Example 137, 1-[2-(3-Cyclopropyl-phenylamino)-4H-benzo[d][1,3]oxazin-6-yl]-3-(1-isopropyl-piperidin-4-yl)-urea]",5.32,,
"COCC1CN(CC(=O)Nc2ccc3c(c2)COC(NC2CCc4cccc(OC)c42)=N3)CCN1C (stereo not shown) [Example 146, N-[2-(7-Methoxy-indan-1-ylamino)-4H-benzo[d][1,3]oxazin-6-yl]-2-(3-methoxymethyl-4-methyl-piperazin-1-yl)-acetamide]",3.7,,
"COCC1CN(CC(=O)Nc2ccc3c(c2)COC(N[C@@H]2CCc4ccccc42)=N3)CCN1C (stereo partly drawn) [Example 147, N-[2-((R)-Indan-1-ylamino)-4H-benzo[d][1,3]oxazin-6-yl]-2-(3-methoxymethyl-4-methyl-piperazin-1-yl)-acetamide]",3.55,,
"c1ccc2c(c1)CC[C@H]2NC1=Nc2ccc(C3CC3)cc2CO1 [Example 152, (6-Cyclopropyl-4H-benzo[d][1,3]oxazin-2-yl)-(R)-indan-1-yl-amine]",27.3,,
"Nc1ccc2c(c1)COC(NC1CCCCCCC1)=N2 [Example 153, N^2-Cyclooctyl-4H-benzo[d][1,3]oxazine-2,6-diamine]",11.9,,
"CC(C)NC(=O)Nc1ccc2c(c1)COC(NC1CCCCCC1)=N2 [Example 154, 1-(2-Cycloheptylamino-4H-benzo[d][1,3]oxazin-6-yl)-3-isopropyl-urea]",1.86,,
"O=C(Nc1ccc2c(c1)COC(NC1CCCCCCC1)=N2)C1CC1 [Example 155, Cyclopropanecarboxylic acid (2-cyclooctylamino-4H-benzo[d][1,3]oxazin-6-yl)-amide]",1.3,,
"CN1CCN(CC(=O)Nc2ccc3c(c2)COC(NC2CCCCCCC2)=N3)CC1 [Example 156, N-(2-Cyclooctylamino-4H-benzo[d][1,3]oxazin-6-yl)-2-(4-methyl-piperazin-1-yl)-acetamide]",2.16,,
"CN1C2COCC1CC(CC(=O)Nc1ccc3c(c1)COC(NC1CCc4ccccc41)=N3)C2 [Example 157, endo-N-[2-((R)-indan-1-ylamino)-4H-benzo[d][1,3]oxazin-6-yl]-2-(9-methyl-3-oxa-9-aza-bicyclo[3.3.1]non-7-yl)-acetamide]",,,2.98
"CN1C2COCC1CN(CC(=O)Nc1ccc3c(c1)COC(N[C@@H]1CCc4ccccc41)=N3)C2 [Example 159, N-[2-((R)-Indan-1-ylamino)-4H-benzo[d][1,3]oxazin-6-yl]-2-(9-methyl-3-oxa-7,9-diaza-bicyclo[3.3.1]non-7-yl)-acetamide]",,,18.9

# Continued, in another order:
"Ki [1, 2] [nM]",melting point [°C],SMILES,Ki [1] [nM]
13.8,151,"COc1cccc2c1C(NC1=Nc3ccc(Br)cc3CO1)CC2 (racemic) [Example 74, rac-(6-Bromo-4H-benzo[d][1,3]oxazin-2-yl)-(7-methoxy-indan-1-yl)-amine]",
2.94,121,"Cc1nnc(Nc2ccc3c(c2)COC(NC2CCc4cc(F)ccc42)=N3)o1 (racemic) [Example 106, rac-N^2-(5-Fluoro-indan-1-yl)-N^6-(5-methyl-[1,3,4]oxadiazol-2-yl)-4H-benzo[d][1,3]oxazine-2,6-diamine]",
10.1,191,"COc1cccc2c1C(NC1=Nc3ccc(Nc4nnc(C)o4)cc3CO1)CO2 (racemic) [Example 107, rac-N^2-(4-Methoxy-2,3-dihydro-benzofuran-3-yl)-N^6-(5-methyl-[1,3,4]oxadiazol-2-yl)-4H-benzo[d][1,3]oxazine-2,6-diamine]",
1.65,204,"COc1cccc2c1C(NC1=Nc3ccc(Nc4nnc(C5CC5)o4)cc3CO1)CC2 (racemic) [Example 111, rac-N^6-(5-Cyclopropyl-[1,3,4]oxadiazol-2-yl)-N^2-(7-methoxy-indan-1-yl)-4H-benzo[d][1,3]oxazine-2,6-diamine]",
8.44,173,"COc1cccc2c1C(NC1=Nc3ccc(Nc4nnc(C(F)(F)F)o4)cc3CO1)CC2 (racemic) [Example 144, rac-N^2-(7-Methoxy-indan-1-yl)-N^6-(5-trifluoromethyl-[1,3,4]oxadiazol-2-yl)-4H-benzo[d][1,3]oxazine-2,6-diamine]",
40.2,212,"COc1cccc2c1C(NC1=Nc3ccc(Nc4nnc(C(F)(F)F)o4)cc3CO1)CO2 (racemic) [Example 145, rac-N^2-(4-Methoxy-2,3-dihydro-benzofuran-3-yl)-N^6-(5-trifluoromethyl-[1,3,4]oxadiazol-2-yl)-4H-benzo[d][1,3]oxazine-2,6-diamine]",
37.8,,"Nc1ccc2c(c1)COC(Nc1cccc(C3CC3)c1)=N2 [Example 119, N^2-(3-Cyclopropyl-phenyl)-4H-benzo[d][1,3]oxazine-2,6-diamine]",
37.2,,"c1cc(NC2=Nc3ccc(NCc4ncc[nH]4)cc3CO2)cc(C2CC2)c1 [Example 125, N^2-(3-Cyclopropyl-phenyl)-N^6-(1H-imdazol-2-ylmethyl)-4H-benzo[d][1,3]oxazine-2,6-diamine]",
37.7,,"CN1CCN(CC(=O)Nc2ccc3c(c2)COC(Nc2cccc(C4CC4)c2)=N3)CC1 [Example 126, N-[2-(3-Cyclopropyl-phenylamino)-4H-benzo[d][1,3]oxazin-6-yl]-2-(4-methyl-piperazin-1-yl)-acetamide]",
37.9,,"c1cc(NC2=Nc3ccc(NCc4nccs4)cc3CO2)cc(C2CC2)c1 [Example 127, N^2-(3-Cyclopropyl-phenyl)-N^6-thiazol-2-ylmethyl-4H-benzo[d][1,3]oxazine-2,6-diamine]",
23.5,,"O=C(Nc1ccc2c(c1)COC(Nc1cccc(C3CC3)c1)=N2)C1CC1 [Example 128, Cyclopropanecarboxylic acid [2-(3-cyclopropyl-phenylamino)-4H-benzo[d][1,3]oxazin-6-yl]-amide]",
13.3,,"NCc1ccc2c(c1)COC(N[C@@H]1CCc3ccccc31)=N2 [Example 129, (6-Aminomethyl-4H-benzo[d][1,3]oxazin-2-yl)-(R)-indan-1-yl-amine]",
17.9,,"CC1(C)Cc2cccc(NC3=Nc4ccc(NCc5ncc[nH]5)cc4CO3)c2O1 [Example 131, N^2-(2,2-Dimethyl-2,3-dihydro-benzofuran-7-yl)-N^6-(1H-imidazol-2-ylmethyl)-4H-benzo[d][1,3]oxazine-2,6-diamine]",
71.7,,"CN(C)S(=O)(=O)Nc1ccc2c(c1)COC(Nc1cccc(C3CC3)c1)=N2 [Example 135, N′-{2-[(3-cyclopropylphenyl)amino]-4H-benzo[d][1,3]oxazin-6-yl}-N,N-dimethylsulfamide]",
61.3,,"c1ccc(CNc2ccc3c(c2)COC(Nc2cccc(C4CC4)c2)=N3)cc1 [Example 136, N^6-Benzyl-N^2-(3-cyclopropyl-phenyl)-4H-benzo[d][1,3]oxazine-2,6-diamine]",
241,,"CC(C)NC(=O)Nc1ccc2c(c1)COC(Nc1cccc3c1OC(C)(C)C3)=N2 [Example 139, 1-[2-(2,2-Dimethyl-2,3-dihydro-benzofuran-7-ylamino)-4H-benzo[d][1,3]oxazin-6-yl]-isopropyl-urea]",
138,,"O=S(=O)(Nc1ccc2c(c1)COC(Nc1cccc(C3CC3)c1)=N2)C1CC1 [Example 149, Cyclopropanesulfonic acid [2-(3-cyclopropyl-phenylamino)-4H-benzo[d][1,3]oxazin-6-yl]-amide]",
299,,"O=S(=O)(Nc1ccc2c(c1)COC(Nc1cccc(C3CC3)c1)=N2)c1ccccc1 [Example 150, N-[2-(3-Cyclopropyl-phenylamino)-4H-benzo[d][1,3]oxazin-6-yl]-benzenesulfonamide]",
114,,"CC(C)NC(=O)Nc1ccc2c(c1)COC(Nc1cccc(C3CC3)c1)=N2 [Example 151, 1-[2-(3-Cyclopropyl-phenylamino)-4H-benzo[d][1,3]oxazin-6-yl]-3-isopropyl-urea]",
